Reference: ChEMBL document CHEMBL2429815, “Synthesis of 5-benzyl-4-aryl-octahydro-1H-benzo[b][1,5]diazepin-2-ones as potent antidepressant and antimicrobial agents” (Med Chem Res, 2013)

Legend:
Bacillus subtilis = test: Antibacterial activity against Bacillus subtilis ATCC […] assessed as growth inhibition at 10 ug/ml by disc diffusion method; format: functional; settings: read-out: IZ
Staphylococcus aureus = test: Antibacterial activity against Staphylococcus aureus ATCC 6538 assessed as growth inhibition at 10 ug/ml by disc diffusion method; format: functional; settings: read-out: IZ
Escherichia coli = test: Antibacterial activity against Escherichia coli ATCC 35218 assessed as growth inhibition at 10 ug/ml by disc diffusion method; format: functional; settings: read-out: IZ
Pseudomonas aeruginosa = test: Antibacterial activity against Pseudomonas aeruginosa ATCC 9027 assessed as growth inhibition at 10 ug/ml by disc diffusion method; format: functional; settings: read-out: IZ
Rattus norvegicus [1] = test: Neurotoxicity in rat assessed as minimal motor impairment by measuring coordination time at 100 mg/kg, ip 30 mins prior to testing by rotarod method; format: toxicity, organism-based; design: dose 100 mg/kg, route intraperitoneal; settings: in vivo, 0.5 h
Rattus norvegicus [2] = test: Antidepressant activity in Albino rat assessed as reduction in immobility duration at 20 mg/kg, ip measured during 5 mins by forced swim test relative to control; format: functional; design: scale not given: the % may be the effect or the level left; settings: route intraperitoneal

Compound: O=C1CC(c2ccccc2Cl)N(Cc2ccccc2)C2CCCCC2N1 (configuration not stated)
- zone of inhibition at 10 µg/mL (Bacillus subtilis): 4 mm
- zone of inhibition at 10 µg/mL (Staphylococcus aureus): 8 mm
- zone of inhibition at 10 µg/mL (Escherichia coli): 4 mm
- zone of inhibition at 10 µg/mL (Pseudomonas aeruginosa): 9 mm
- Time (Rattus norvegicus [1]): 95.17 s
- Activity (Rattus norvegicus [2]): 78.23%

Compound: O=C1CC(c2cc3ccccc3nc2Cl)N(Cc2ccccc2)C2CCCCC2N1 (configuration not stated)
- zone of inhibition at 10 µg/mL (Bacillus subtilis): 6 mm
- zone of inhibition at 10 µg/mL (Staphylococcus aureus): 13 mm
- zone of inhibition at 10 µg/mL (Escherichia coli): 6 mm
- zone of inhibition at 10 µg/mL (Pseudomonas aeruginosa): 6 mm
- Time (Rattus norvegicus [1]): 98.33 s
- Activity (Rattus norvegicus [2]): 85.27%

Compound: O=C(O)c1cn(C2CC2)c2cc(N3CCNCC3)c(F)cc2c1=O [CIPROFLOXACIN]
- zone of inhibition at 10 µg/mL (Bacillus subtilis): 9 mm
- zone of inhibition at 10 µg/mL (Staphylococcus aureus): 18 mm
- zone of inhibition at 10 µg/mL (Escherichia coli): 9 mm
- zone of inhibition at 10 µg/mL (Pseudomonas aeruginosa): 12 mm

Compound: O=C1CC(c2ccc([N+](=O)[O-])cc2)N(Cc2ccccc2)C2CCCCC2N1 (configuration not stated)
- zone of inhibition at 10 µg/mL (Bacillus subtilis): 6 mm
- zone of inhibition at 10 µg/mL (Staphylococcus aureus): 15 mm
- zone of inhibition at 10 µg/mL (Escherichia coli): 4 mm
- zone of inhibition at 10 µg/mL (Pseudomonas aeruginosa): 9 mm
- Time (Rattus norvegicus [1]): 93.5 s
- Activity (Rattus norvegicus [2]): 89.44%

Compound: COc1ccc(C2CC(=O)NC3CCCCC3N2Cc2ccccc2)cc1OC (configuration not stated)
- zone of inhibition at 10 µg/mL (Bacillus subtilis): 7 mm
- zone of inhibition at 10 µg/mL (Staphylococcus aureus): 7 mm
- zone of inhibition at 10 µg/mL (Escherichia coli): 8 mm
- zone of inhibition at 10 µg/mL (Pseudomonas aeruginosa): 5 mm
- Time (Rattus norvegicus [1]): 96.5 s
- Activity (Rattus norvegicus [2]): 89.03%

Compound: O=C1CC(c2ccc(Br)cc2)N(Cc2ccccc2)C2CCCCC2N1 (configuration not stated)
- zone of inhibition at 10 µg/mL (Bacillus subtilis): 5 mm
- zone of inhibition at 10 µg/mL (Staphylococcus aureus): 10 mm
- zone of inhibition at 10 µg/mL (Escherichia coli): 5 mm
- zone of inhibition at 10 µg/mL (Pseudomonas aeruginosa): 8 mm
- Time (Rattus norvegicus [1]): 93.67 s
- Activity (Rattus norvegicus [2]): 85.82%

Compound: COc1ccc(C2CC(=O)NC3CCCCC3N2Cc2ccccc2)cc1 (configuration not stated)
- zone of inhibition at 10 µg/mL (Bacillus subtilis): 3 mm
- zone of inhibition at 10 µg/mL (Staphylococcus aureus): 12 mm
- zone of inhibition at 10 µg/mL (Escherichia coli): 5 mm
- zone of inhibition at 10 µg/mL (Pseudomonas aeruginosa): 7 mm
- Time (Rattus norvegicus [1]): 97.83 s
- Activity (Rattus norvegicus [2]): 86.4%

Compound: O=C1CC(c2ccccc2Br)N(Cc2ccccc2)C2CCCCC2N1 (configuration not stated)
- zone of inhibition at 10 µg/mL (Bacillus subtilis): 6 mm
- zone of inhibition at 10 µg/mL (Staphylococcus aureus): 15 mm
- zone of inhibition at 10 µg/mL (Escherichia coli): 6 mm
- zone of inhibition at 10 µg/mL (Pseudomonas aeruginosa): 5 mm
- Time (Rattus norvegicus [1]): 91.33 s
- Activity (Rattus norvegicus [2]): 71.1%

Compound: O=C1CC(c2cccc([N+](=O)[O-])c2)N(Cc2ccccc2)C2CCCCC2N1 (configuration not stated)
- zone of inhibition at 10 µg/mL (Bacillus subtilis): 3 mm
- zone of inhibition at 10 µg/mL (Staphylococcus aureus): 10 mm
- zone of inhibition at 10 µg/mL (Escherichia coli): 4 mm
- zone of inhibition at 10 µg/mL (Pseudomonas aeruginosa): 7 mm
- Time (Rattus norvegicus [1]): 92.34 s
- Activity (Rattus norvegicus [2]): 85.82%

Compound: O=C1CC(c2coc3ccccc3c2=O)N(Cc2ccccc2)C2CCCCC2N1 (configuration not stated)
- zone of inhibition at 10 µg/mL (Bacillus subtilis): 4 mm
- zone of inhibition at 10 µg/mL (Staphylococcus aureus): 8 mm
- zone of inhibition at 10 µg/mL (Escherichia coli): 5 mm
- zone of inhibition at 10 µg/mL (Pseudomonas aeruginosa): 5 mm
- Time (Rattus norvegicus [1]): 97.17 s
- Activity (Rattus norvegicus [2]): 83.56%

Compound: O=C1CC(c2ccccc2)N(Cc2ccccc2)C2CCCCC2N1 (configuration not stated)
- zone of inhibition at 10 µg/mL (Bacillus subtilis): 6 mm
- zone of inhibition at 10 µg/mL (Staphylococcus aureus): 9 mm
- zone of inhibition at 10 µg/mL (Escherichia coli): 5 mm
- zone of inhibition at 10 µg/mL (Pseudomonas aeruginosa): 6 mm
- Time (Rattus norvegicus [1]): 100.33 s
- Activity (Rattus norvegicus [2]): 81.56%

Compound: O=C1CC(c2ccc(Cl)cc2)N(Cc2ccccc2)C2CCCCC2N1 (configuration not stated)
- zone of inhibition at 10 µg/mL (Bacillus subtilis): 3 mm
- zone of inhibition at 10 µg/mL (Staphylococcus aureus): 10 mm
- zone of inhibition at 10 µg/mL (Escherichia coli): 3 mm
- zone of inhibition at 10 µg/mL (Pseudomonas aeruginosa): 4 mm
- Time (Rattus norvegicus [1]): 90.83 s
- Activity (Rattus norvegicus [2]): 88.03%

Compound: CN(C)CCCN1c2ccccc2CCc2ccc(Cl)cc21 [CLOMIPRAMINE]
- Time (Rattus norvegicus [1]): 110.83 s
- Activity (Rattus norvegicus [2]): 92.21%
